The subject of assay [1] is HIF1a protein content in H9c2 rat cardiomyocytes. Description: Cell-based HIF-α Stabilization Assay (HIF1a ELISA). To be noted: H9c2 cells, 24 hours compound incubation, concentration giving 50% of desferrioxamine maximum response, -log(EC50), EC50 molar, read-out: Stabilization of HIF-α (pEC50) (converted). On the procedure:
H9c2 rat cardiomyocytes (ATCC) were seeded in 96-well tissue culture microplates and cultured for 24 hours prior to addition of compounds (11 point range of serial dilutions) or DMSO vehicle. After 24 hours of compound incubation, whole cell extracts were prepared by lysing cells in cell extraction buffer containing protease and phosphatase inhibitors (Meso-Scale Discovery). HIF1a protein content was assessed by ELISA (Meso-Scale Discovery) and expressed as % relative to the maximum response obtained from the positive control, desferrioxamine (Sigma-Aldrich). EC50 for each compound was obtained by curve-fitting using XLfit4 MicroSoft Excel curve-fitting software to calculate the compound concentration that results in 50% of the desferrioxamine maximum response.
(§1) Table 1 lists biological data for some of the compounds shown in the examples, where larger pIC50 and pEC50 values represent higher potency or activity, respectively. The IC50 data (reported in Table 1 as pIC50) were obtained using the enzyme-based assay described in the specification under the heading “Inhibition of PHD2 Enzyme.” The EC50 data (reported in Table 1 as pEC50) were obtained using the cell-based assay described in the specification under the heading “Cell-based HIF-α Stabilization Assay.”
On the technique in general: An ELISA detects its analyte on a solid surface through an enzyme-linked reagent.

Assay [2] addresses T1, PHD2 enzyme (residues 181-417) (Homo sapiens, UniProt Q9GZT9).
T1 construct: The IC50 values for the PHD2 enzyme (residues 181-417) were determined
Put plainly: Inhibition of PHD2 Enzyme (LC/MS detection of hydroxylated peptide). To be noted: 5 nM enzyme, 1 μM biotin-labeled peptide, 2 μM 2-oxoglutarate, 60 min pre-incubation, pH 7.3; -log(IC50), IC50 molar; read-out: Inhibition of PHD2 (pIC50) (converted). It is filed as biochemical. As for the experimental part: The IC50 values for the PHD2 enzyme (residues 181-417) were determined by mixing increasing amounts of an inhibitor with a fixed amount of enzyme (5 nM, final concentration) and Biotin-labeled peptide (Biotin-Asp-Leu-Glu-Met-Leu-Ala-Pro-Tyr-Ile-Pro-Met-Asp-Asp-Asp-Phe-Gln-Leu, 1 μM final concentration) and 2-oxyglutarate (2 μM final concentration) in 50 mM HEPES, 50 mM KCl, 0.5 mM TCEP, 2 μM FeCl2, 0.1 mg/mL BSA, at pH 7.3. The reaction was conducted by pre-incubating the enzyme in the presence of the inhibitor for 60 minutes at room temperature. The activity of the free enzyme was measured by adding the peptide, the 2-oxoglutarate, and ascorbic acid (1 mM final concentration). The enzymatic activity was quenched after 60 minutes by adding an excess of a tight binding inhibitor to the assay mixture. The amount of product released was measured by using a LC/MS system (Agilent HPLC with Applied Biosystems API3000 Mass Spectrometer). Data were analyzed using the classical isotherm equation for the determination of IC50 values and are reported in Table 1, below, as pIC50, i.e., −log(IC50), where IC50 is molar concentration of the test compound at 50% inhibition.
as §1

T1 sequence (Q9GZT9 181-417): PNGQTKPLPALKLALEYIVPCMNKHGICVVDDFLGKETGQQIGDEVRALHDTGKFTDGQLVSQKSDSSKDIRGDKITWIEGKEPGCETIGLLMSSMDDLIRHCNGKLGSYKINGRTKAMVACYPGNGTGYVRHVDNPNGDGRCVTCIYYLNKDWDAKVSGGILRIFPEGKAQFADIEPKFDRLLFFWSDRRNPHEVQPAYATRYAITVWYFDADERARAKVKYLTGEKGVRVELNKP

As for `N#Cc1ccc(CNC(=O)c2ncccc2O)cc1` [Example 1, N-(4-cyanobenzyl)-3-hydroxypicolinamide], the EC50 in assay [1] was 10000 nM. In assay [2], the IC50 was 63.1 nM.

As to `N#Cc1cccc(CNC(=O)c2ncccc2O)c1` [Example 2, N-(3-cyanobenzyl)-3-hydroxypicolinamide, reference compound], the IC50 in assay [2] was 3160 nM. Take `N#Cc1ccc(CNC(=O)c2ncccc2O)cn1` [Example 3, N-((6-cyanopyridin-3-yl)methyl)-3-hydroxypicolinamide]: the IC50 in assay [2] is 1000 nM.

`Cc1cc(C#N)ccc1CNC(=O)c1ncccc1O` [Example 4, N-(4-cyano-2-methylbenzyl)-3-hydroxypicolinamide]: the EC50 in assay [1] was 7940 nM. The IC50 in assay [2] is 20 nM. Consider `N#Cc1ccc(CNC(=O)c2ncccc2O)c(F)c1` [Example 5, N-(4-cyano-2-fluorobenzyl)-3-hydroxypicolinamide], for which the EC50 in assay [1] was 7940 nM. Moreover, in assay [2], the IC50 is 31.6 nM. Consider `N#Cc1ccc(CNC(=O)c2ncccc2O)cc1F` [Example 6, N-(4-cyano-3-fluorobenzyl)-3-hydroxypicolinamide], for which the EC50 in assay [1] was 6310 nM. Besides, in assay [2], the IC50 was 31.6 nM. For `N#Cc1ccc(CNC(=O)c2ncccc2O)c(C(F)(F)F)c1` [Example 7, N-(4-cyano-2-(trifluoromethyl)benzyl)-3-hydroxypicolinamide], in assay [2], the IC50 was 3980 nM. Regarding `CCN1CCN(C(=O)c2cnc(C(=O)NCc3ccc(C#N)cc3C)c(O)c2)CC1` [Example 8, N-(4-cyano-2-methylbenzyl)-5-(4-ethylpiperazine-1-carbonyl)-3-hydroxypicolinamide], the EC50 in assay [1] is 12600 nM. Also, the IC50 in assay [2] is 100 nM. For `CCN1CCN(C(=O)c2cnc(C(=O)N[C@@H]3CCc4cc(C#N)ccc43)c(O)c2)CC1` [Example 9, (R)—N-(5-cyano-2,3-dihydro-1H-inden-1-yl)-5-(4-ethylpiperazine-1-carbonyl)-3-hydroxypicolinamide], in that order: 12600 nM and 50.1 nM. For `Cc1cc(C#N)cc(C)c1CNC(=O)c1ncccc1O` [Example 10, N-(4-cyano-2,6-dimethylbenzyl)-3-hydroxypicolinamide], in that order: 3160 nM and 12.6 nM. With `Cc1cnc(C(=O)NCc2c(C)cc(C#N)cc2C)c(O)c1` [Example 11, N-(4-cyano-2,6-dimethylbenzyl)-3-hydroxy-5-methylpicolinamide], in assay [1], the EC50 was 7940 nM. In addition, the IC50 in assay [2] was 31.6 nM.

As for `Cc1cc(CNC(=O)c2ncccc2O)c(C)cc1C#N` [Example 12, N-(4-cyano-2,5-dimethylbenzyl)-3-hydroxypicolinamide], the EC50 in assay [1] is 25100 nM. Moreover, the IC50 in assay [2] was 39.8 nM. For `Cc1cc(C#N)c(F)cc1CNC(=O)c1ncccc1O` [Example 13, N-(4-cyano-5-fluoro-2-methylbenzyl)-3-hydroxypicolinamide], in that order: 10000 nM and 15.8 nM.

Take `Cc1c(CNC(=O)c2ncccc2O)ccc(C#N)c1F` [Example 14, N-(4-cyano-3-fluoro-2-methylbenzyl)-3-hydroxypicolinamide]: the EC50 in assay [1] is 12600 nM. In assay [2], the IC50 was 12.6 nM. `N#Cc1ccc(CNC(=O)c2ncccc2O)c(Cl)c1` [Example 15, N-(2-chloro-4-cyanobenzyl)-3-hydroxypicolinamide]: the EC50 in assay [1] was 12600 nM. In assay [2], the IC50 is 25.1 nM. The matching figures for `N#Cc1ccc(CNC(=O)c2ncc(C#N)cc2O)cc1` [Example 16, 5-cyano-N-(4-cyanobenzyl)-3-hydroxypicolinamide]: 6310 nM and 251 nM. The matching figures for `Cc1cc(C#N)ccc1CNC(=O)c1ncc(C#N)cc1O` [Example 17, 5-cyano-N-(4-cyano-2-methylbenzyl)-3-hydroxypicolinamide]: 50100 nM and 316 nM.

For the compound `N#Cc1ccc2c(c1)CCCC2NC(=O)c1ncccc1O` (stereo not drawn) [Example 18, N-(6-cyano-1,2,3,4-tetrahydronaphthalen-1-yl)-3-hydroxypicolinamide], the EC50 in assay [1] is 50100 nM. In addition, the IC50 in assay [2] is 1260 nM.

For the compound `N#Cc1ccc2c(c1)CC[C@H]2NC(=O)c1ncccc1O` [Example 19, (R)—N-(5-cyano-2,3-dihydro-1H-inden-1-yl)-3-hydroxypicolinamide], the EC50 in assay [1] is 6310 nM. Besides, the IC50 in assay [2] is 10 nM.

As for `N#Cc1ccc2c(c1)CC[C@H]2NC(=O)c1ncccc1O` [Example 20, (R)—N-(5-cyano-2,3-dihydro-1H-inden-1-yl)-3-hydroxypicolinamide], the IC50 in assay [2] is 12.6 nM. Regarding `N#Cc1ccc2c(c1)CC[C@@H]2NC(=O)c1ncccc1O` [Example 21, (S)—N-(5-cyano-2,3-dihydro-1H-inden-1-yl)-3-hydroxypicolinamide], the EC50 in assay [1] is 50100 nM. In addition, the IC50 in assay [2] is 2510 nM. The matching figures for `N#Cc1ccc2c(c1)OCC2NC(=O)c1ncccc1O` (stereo not drawn) [Example 22, N-(6-cyano-2,3-dihydrobenzofuran-3-yl)-3-hydroxypicolinamide]: 7940 nM and 39.8 nM.

As for `Cc1cnc(C(=O)N[C@@H]2CCc3cc(C#N)ccc32)c(O)c1` [Example 23, (R)—N-(5-cyano-2,3-dihydro-1H-inden-1-yl)-3-hydroxy-5-methylpicolinamide], the EC50 in assay [1] was 7940 nM. In assay [2], the IC50 is 31.6 nM. The matching figures for `N#Cc1ccc(CNC(=O)c2ncccc2O)nc1` [Example 24, N-((5-cyanopyridin-2-yl)methyl)-3-hydroxypicolinamide]: 7940 nM and 398 nM. Turning to `Cc1cc(C#N)cc(C)c1CNC(=O)c1ncc(Cl)cc1O` [Example 25, 5-chloro-N-(4-cyano-2,6-dimethylbenzyl)-3-hydroxypicolinamide], the EC50 in assay [1] was 12600 nM. Further, the IC50 in assay [2] is 20 nM. For `Cc1cc(C#N)cc(C)c1CNC(=O)c1ncc(C#N)cc1O` [Example 26, 5-cyano-N-(4-cyano-2,6-dimethylbenzyl)-3-hydroxypicolinamide], in that order: 12600 nM and 25.1 nM. Regarding `Cc1cc(C#N)cc(C)c1CNC(=O)c1ncc(F)cc1O` [Example 27, N-(4-cyano-2,6-dimethylbenzyl)-5-fluoro-3-hydroxypicolinamide], the EC50 in assay [1] is 6310 nM. Moreover, in assay [2], the IC50 was 15.8 nM. The matching figures for `Cc1cc(C#N)cc(C)c1CNC(=O)c1ncc(C(F)(F)F)cc1O` [Example 28, N-(4-cyano-2,6-dimethylbenzyl)-3-hydroxy-5-(trifluoromethyl)picolinamide]: 15800 nM and 50.1 nM. The matching figures for `COc1cnc(C(=O)NCc2c(C)cc(C#N)cc2C)c(O)c1` [Example 29, N-(4-cyano-2,6-dimethylbenzyl)-3-hydroxy-5-methoxypicolinamide]: 1580 nM and 10 nM. The matching figures for `N#Cc1ccc2c(c1)CC[C@H]2NC(=O)c1ncc(F)cc1O` [Example 30, (R)—N-(5-cyano-2,3-dihydro-1H-inden-1-yl)-5-fluoro-3-hydroxypicolinamide]: 15800 nM and 15.8 nM.

Turning to `N#Cc1ccc2c(c1)CC[C@H]2NC(=O)c1ncc(Cl)cc1O` [Example 31, (R)-5-chloro-N-(5-cyano-2,3-dihydro-1H-inden-1-yl)-3-hydroxypicolinamide], in assay [1], the EC50 is 25100 nM. Moreover, the IC50 in assay [2] is 31.6 nM.

Regarding `N#Cc1ccc2c(c1)CC[C@H]2NC(=O)c1ncc(C(F)(F)F)cc1O` [Example 32, (R)—N-(5-cyano-2,3-dihydro-1H-inden-1-yl)-3-hydroxy-5-(trifluoromethyl)picolinamide], the EC50 in assay [1] was 39800 nM. Moreover, the IC50 in assay [2] is 126 nM.

With `COc1cnc(C(=O)N[C@@H]2CCc3cc(C#N)ccc32)c(O)c1` [Example 33, (R)—N-(5-cyano-2,3-dihydro-1H-inden-1-yl)-3-hydroxy-5-methoxypicolinamide], the EC50 in assay [1] was 6310 nM. The IC50 in assay [2] is 7.94 nM. With `Cc1cc(C#N)ccc1CNC(=O)c1ncc(C(F)(F)F)cc1O` [Example 37, N-(4-cyano-2-methylbenzyl)-3-hydroxy-5-(trifluoromethyl)picolinamide], the IC50 in assay [2] is 251 nM.

Values taken from patent US20200277262A1, “N-(CYANO-SUBSTITUTED BENZYL OR PYRIDINYLMETHYL)-3-HYDROXYPICOLINAMIDE DERIVATIVES” (Takeda Pharmaceutical Company Limited, priority 2017, published 2020).
